Measured values from the supplement of paper PMC4862054.

How the values were obtained:
Settings in all cases: incubation time: 72 h
[1] = test system: HCC1599; test: normalised response (% of control), CellTox Green; higher = less cell death (100 = DMSO, 0 = benzethonium chloride kill control)
In short: (§1)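 After 72 h with compound in 384-well plates, breast cancer cell lines seeded as 20 µl suspension were read for CellTox Green fluorescence at 485/520 nm. CellTiter-Glo luminescence was then read after 10 min at room temperature. Compound was present at 5 concentrations in 10-fold steps over a 10,000-fold range set per compound, and plates were normalised to 0.1 % DMSO (100) and a positive kill control (0). Values are normalised signals, each at a single concentration.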

[2] = test system: CAL-51; test: as above
In short: as §1

[3] = test system: MDA-MB-468; test: as above
In short: as §1

[4] = test system: CAL-148; test: as above
In short: as §1

[5] = test system: Hs578T; test: normalised response (% of control), CellTiter-Glo; higher = more viable cells (100 = DMSO, 0 = benzethonium chloride kill control)
In short: as §1

[6] = test system: HCC1937; test: as above
In short: as §1

[7] = test system: CAL-85-1; test: as above
In short: as §1

[8] = test system: DU-4475; test: as above
In short: as §1

[9] = test system: CAL-120; test: as above
In short: as §1

[10] = test system: MDA-MB-231; test: as above
In short: as §1

[11] = test system: HCC1143; test: as above
In short: as §1

[12] = test system: BT-549; test: as above
In short: as §1

[13] = test system: SK-BR-3; test: as above
In short: as §1

[14] = test system: MCF-10A; test: as above
In short: as §1

[15] = test system: HCC1599; test: as above
In short: as §1

[16] = test system: BT-474; test: as above
In short: as §1

[17] = test system: CAL-51; test: as above
In short: as §1

[18] = test system: MDA-MB-436; test: as above
In short: as §1

[19] = test system: MDA-MB-468; test: as above
In short: as §1

[20] = test system: HDQ-P1; test: as above
In short: as §1

[21] = test system: MDA-MB-453; test: as above
In short: as §1

[22] = test system: CAL-148; test: as above
In short: as §1

[23] = test system: MFM-223; test: as above
In short: as §1

[24] = test system: CAL-85-1; test: normalised viability (% of control), CellTiter-Blue; higher = more viable cells (about 100 = DMSO control)
In short: (§2)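 Breast cancer cell lines in 20 µl suspension were seeded onto 384-well plates pre-loaded with compound dissolved in 5 µl medium, then incubated 72 h. CellTiter-Blue reagent (2.5 µl) was added for 2 h at 37 °C and fluorescence read at 560/590 nm. Each plate was normalised to vehicle (100) and a positive kill control (0), with Z'-factor quality control. The value is normalised viability at one listed concentration of the series.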

[25] = test system: DU-4475; test: as above
In short: as §2

[26] = test system: CAL-51; test: as above
In short: as §2

[27] = test system: HDQ-P1; test: as above
In short: as §2

[28] = test system: MDA-MB-453; test: as above
In short: as §2

[29] = test system: CAL-148; test: as above
In short: as §2

SMILES | normalised response [1] [%] | normalised response [2] [%] | normalised response [3] [%] | normalised response [4] [%] | normalised response [5] [%] | normalised response [6] [%] | normalised response [7] [%] | normalised response [8] [%] | normalised response [9] [%] | normalised response [10] [%] | normalised response [11] [%] | normalised response [12] [%] | normalised response [13] [%] | normalised response [14] [%] | normalised response [15] [%] | normalised response [16] [%] | normalised response [17] [%] | normalised response [18] [%] | normalised response [19] [%] | normalised response [20] [%] | normalised response [21] [%] | normalised response [22] [%] | normalised response [23] [%] | normalised viability [24] [%] | normalised viability [25] [%] | normalised viability [26] [%] | normalised viability [27] [%] | normalised viability [28] [%] | normalised viability [29] [%]
COc1cc([C@@H]2c3cc4c(cc3[C@@H](O[C@@H]3O[C@@H]5CO[C@@H](C)O[C@H]5[C@H](O)[C@H]3O)[C@H]3COC(=O)[C@H]23)OCO4)cc(OC)c1O [Etoposide] (10000 nM) | 91 | 36.8 | -48 | 49.6 | 67.3 | 67.5 | 49.8 | 19.6 | 73.7 | 70.8 | 38.8 | 35.9 | 15.8 | 87.1 | 11.8 | 44.1 | 23.9 | 36.6 | 38.5 | 82.3 | 142 | 39.9 | 90.8 | 63.1 | 4.57 | 18.4 | 62.6 | 61.4 | 31.7
CN(N=O)C(=O)N[C@@H](C=O)[C@@H](O)[C@H](O)[C@H](O)CO [Streptozocin] (10000 nM) | 98.6 | 102 | 64.1 | 107 | 109 | 105 | 98.5 | 96.1 | 109 | 98 | 106 | 97.7 | 108 | 110 | 92.5 | 100 | 91.8 | 97.2 | 104 | 102 | 95.6 | 107 | 106 | 91.1 | 92.6 | 101 | 122 | 99.1 | 105
CCC1=C[C@@H]2CN(C1)Cc1c([nH]c3ccccc13)[C@@](C(=O)OC)(c1cc3c(cc1OC)N(C)[C@H]1[C@@](O)(C(=O)OC)[C@H](OC(C)=O)[C@]4(CC)C=CCN5CC[C@]31[C@@H]54)C2 [Vinorelbine] (10000 nM) | 70.8 | 7 | 5.11 | 80.7 | 15.9 | 69.8 | 48.9 | 40.4 | 54 | 40.1 | 55.3 | 36.1 | 14.8 | 78.3 | 4.45 | 48.2 | 27.5 | 24.5 | 18.1 | 70.6 | 53.8 | 49.6 | 39.6 | 44.2 | 9.67 | 11.5 | 38.9 | 29.4 | 30.3
